Active and inactive are the calls of the source. No cut-off for these calls is given here.
target: T1, Opioid receptor (Rattus norvegicus) (UniProt P33533+P34975+P33535); experiment: Displacement of specific [3H]dihydromorphine from opiate receptor in rat brain homogenates at 10^-5 M after 10 mins by scintillation counting; format: tissue-based
T1 sequence (P33533 whole entry, looked up): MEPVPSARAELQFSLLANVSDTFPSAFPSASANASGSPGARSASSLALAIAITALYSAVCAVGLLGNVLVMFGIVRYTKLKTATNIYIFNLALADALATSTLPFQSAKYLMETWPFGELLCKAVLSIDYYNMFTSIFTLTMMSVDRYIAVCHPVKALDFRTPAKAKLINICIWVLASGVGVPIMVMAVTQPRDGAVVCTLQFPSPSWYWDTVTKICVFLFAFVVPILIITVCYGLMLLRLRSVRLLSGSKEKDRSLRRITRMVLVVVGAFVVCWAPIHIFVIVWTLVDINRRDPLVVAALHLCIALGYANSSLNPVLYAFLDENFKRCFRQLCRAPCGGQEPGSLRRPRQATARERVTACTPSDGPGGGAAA
T1 sequence (P33535 whole entry, looked up): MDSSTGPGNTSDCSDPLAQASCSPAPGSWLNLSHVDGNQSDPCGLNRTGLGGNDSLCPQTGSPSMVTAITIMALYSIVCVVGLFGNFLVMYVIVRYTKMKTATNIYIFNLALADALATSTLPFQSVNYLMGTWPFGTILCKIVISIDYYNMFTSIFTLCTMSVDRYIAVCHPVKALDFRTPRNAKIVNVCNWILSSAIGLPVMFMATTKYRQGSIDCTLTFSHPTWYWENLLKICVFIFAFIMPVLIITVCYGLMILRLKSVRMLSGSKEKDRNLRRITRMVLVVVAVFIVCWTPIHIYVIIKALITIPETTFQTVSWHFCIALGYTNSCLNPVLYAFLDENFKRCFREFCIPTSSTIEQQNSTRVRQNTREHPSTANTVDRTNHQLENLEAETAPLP
T1 sequence (P34975 whole entry, looked up): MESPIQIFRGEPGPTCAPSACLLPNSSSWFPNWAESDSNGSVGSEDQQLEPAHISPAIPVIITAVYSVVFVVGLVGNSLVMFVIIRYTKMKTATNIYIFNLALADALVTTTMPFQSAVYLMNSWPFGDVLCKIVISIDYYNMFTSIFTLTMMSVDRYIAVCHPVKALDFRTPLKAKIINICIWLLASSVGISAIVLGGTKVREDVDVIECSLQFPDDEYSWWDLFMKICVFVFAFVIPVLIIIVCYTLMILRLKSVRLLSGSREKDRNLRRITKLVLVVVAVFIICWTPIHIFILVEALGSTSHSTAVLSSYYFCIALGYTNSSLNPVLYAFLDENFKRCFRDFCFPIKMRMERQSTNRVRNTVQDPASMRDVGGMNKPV

Question: Which inhibition does the source give for CCCCCC[C@H]1CN(C)CC[C@]1(OC(=O)CC)c1ccccc1.Cl (relative stereo) here?
Answer: Active

target: T1, Opioid receptor (Rattus norvegicus); experiment: Displacement of nonspecific [3H]dihydromorphine from opiate receptor in rat brain homogenates at 10^-5 M after 10 mins by scintillation counting; format: tissue-based

Question: For CCCCCC[C@H]1CN(C)CC[C@]1(OC(=O)CC)c1ccccc1.Cl (relative stereo), which inhibition is on record?
Answer: Active

tested on: Mus musculus; experiment: Analgesic activity in sc dosed mouse by hot plate method; format: functional

Question: For CCC(=O)O[C@]1(c2ccccc2)CCN(C)C[C@H]1C.Cl (relative stereo), which ED50 is on record?
Answer: 0.18 mg/kg

Question: For CCC(=O)O[C@]1(c2ccccc2)CCN(C)C[C@H]1CC.Cl (relative stereo), which ED50 is on record?
Answer: 3.5 mg/kg

Question: How did the ED50 turn out when CCC(=O)O[C@]1(c2ccccc2)CCN(C)C[C@@H]1CC.Cl (relative stereo) was run?
Answer: 0.4 mg/kg

Question: Which ED50 does the source give for CCCCCC[C@H]1CN(C)CC[C@]1(OC(=O)CC)c1ccccc1.Cl (relative stereo) here?
Answer: 80 mg/kg

Question: Which ED50 does the source give for CN1CC[C@]23c4c5ccc(O)c4O[C@H]2[C@@H](O)C=C[C@H]3[C@H]1C5.Cl [MORPHINE HYDROCHLORIDE] here?
Answer: 1.2 mg/kg

Question: With C=CCC1CN(C)CCC1(OC(=O)CC)c1ccccc1.Cl (configuration not stated) as the compound, how does the ED50 read?
Answer: 0.03 mg/kg

Question: With C=CC[C@H]1CN(C)CC[C@]1(OC(=O)CC)c1ccccc1.Cl (relative stereo) as the compound, how does the ED50 read?
Answer: 0.09 mg/kg

Question: How did the ED50 turn out when CCC(=O)O[C@]1(c2ccccc2)CCN(C)C[C@@H]1C.Cl (relative stereo) was run?
Answer: 0.92 mg/kg

Question: Which ED50 does the source give for C=CC[C@@H]1CN(C)CC[C@]1(OC(=O)CC)c1ccccc1.Cl (relative stereo) here?
Answer: 11.7 mg/kg

Question: Which ED50 does the source give for CCCCCC[C@@H]1CN(C)CC[C@]1(OC(=O)CC)c1ccccc1.Cl (relative stereo) here?
Answer: 54.4 mg/kg
